Article PMC3897212 (Journal of pharmacokinetics and pharmacodynamics, 2013)
Like-named read-outs stand apart in the source and are kept apart here. Marks after values point to notes of the source that are not given here.

Experiments:
CYP3A = conditions: cited from earlier work
[1] = Mouse PBPK model of lapatinib
[2] = Time course tissue distribution / pharmacokinetic study in mice; format: in vivo, female FVB mice; conditions: mouse; for AUC(0-t) / half-life: female, FVB, po
[3] = patients administered lapatinib; cited from earlier work
[4] = test system: albumin and alpha-1 acid glycoprotein; conditions: cited from earlier work
[5] = test system: brain metastases from HER2-positive breast cancer; conditions: human patients with brain metastases from HER2-positive breast cancer; cited from earlier work
[6] = human plasma, cited from earlier work
[7] = Single 100 mg dose plasma pharmacokinetic study in healthy subjects; format: in vivo; conditions: human, po
[8] = test system: metastatic breast cancer cells in the brains of mice; conditions: cited from earlier work
[9] = mice; owing to ABCB1- and ABCB2-mediated efflux; cited from earlier work
[10] = Human PBPK model of lapatinib
[11] = first-order, parameter estimate (CV%) fitted to 60 mg/kg cohort
[12] = parameter estimate (CV%) fitted to 60 mg/kg cohort
[13] = slowly perfused tissue, 30 mg/kg
[14] = slowly perfused tissue, 60 mg/kg
[15] = slowly perfused tissue, 90 mg/kg

Cc1ncc2n1-c1ccc(Cl)cc1C(c1ccccc1F)=NC2 [midazolam]
microsomal intrinsic clearance (CYP3A; human liver): 15800 mL/min | microsomal intrinsic clearance (CYP3A; human small intestine): 213.7 mL/min | small intestine microsomal intrinsic clearance as percent of liver (CYP3A; human): 1.35%

CS(=O)(=O)CCNCc1ccc(-c2ccc3ncnc(Nc4ccc(OCc5cccc(F)c5)c(Cl)c4)c3c2)o1 [lapatinib, N-{3-chloro-4-[(3-fluorobenzyl)oxy]phenyl}-6-[5-({[2-(methylsulfonyl)ethyl]amino}methyl)-2-furyl]-4-quinazolinamine]
Metabolism rate constant Intestine ([1]; calculated as 2 % of liver metabolism): 2.5 ^e h^−1 | Absorption rate constant Lumen → Intestine [1, 11]: 0.237 (2) h^−1 | Metabolism rate constant Liver [1, 11]: 127 (13) h^−1 | Partition coefficient Brain:plasma [1, 12]: 10 (19) Ratio | Partition coefficient Intestine:plasma [1, 12]: 531 (31) Ratio | Partition coefficient Kidney:plasma [1, 12]: 1,064 (18) Ratio | Partition coefficient Liver:plasma [1, 12]: 12 (20) Ratio | Partition coefficient Lung:plasma [1, 12]: 1,643 (19) Ratio | Partition coefficient Slowly perfused:plasma [1, 12]: 65 (20) Ratio | AUC(0-t) ([2]; brain, 30 mg/kg): 0.441 µM·h | AUC(0-t) ([2]; brain, 60 mg/kg): 1.31 µM·h | half-life ([2]; brain, 60 mg/kg): 3.12 h | AUC(0-t) ([2]; brain, 90 mg/kg): 2.26 µM·h | half-life ([2]; brain, 90 mg/kg): 1.76 h | AUC(0-t) ([2]; heart, 30 mg/kg): 7.16 µM·h | half-life ([2]; heart, 30 mg/kg): 2.59 h | AUC(0-t) ([2]; heart, 60 mg/kg): 26.5 µM·h | half-life ([2]; heart, 60 mg/kg): 3.05 h | AUC(0-t) ([2]; heart, 90 mg/kg): 55.2 µM·h | half-life ([2]; heart, 90 mg/kg): 2.32 h | AUC(0-t) ([2]; intestine, 30 mg/kg): 79.9 µM·h | half-life ([2]; intestine, 30 mg/kg): 2.79 h | AUC(0-t) ([2]; intestine, 60 mg/kg): 235 µM·h | half-life ([2]; intestine, 60 mg/kg): 3.05 h | AUC(0-t) ([2]; intestine, 90 mg/kg): 260 µM·h | half-life ([2]; intestine, 90 mg/kg): 2.55 h | AUC(0-t) ([2]; kidney, 30 mg/kg): 50.4 µM·h | half-life ([2]; kidney, 30 mg/kg): 2.53 h | AUC(0-t) ([2]; kidney, 60 mg/kg): 138 µM·h | half-life ([2]; kidney, 60 mg/kg): 3.57 h | AUC(0-t) ([2]; kidney, 90 mg/kg): 227 µM·h | half-life ([2]; kidney, 90 mg/kg): 2.51 h | AUC(0-t) ([2]; liver, 30 mg/kg): 84.9 µM·h | half-life ([2]; liver, 30 mg/kg): 2.48 h | half-life ([2]; liver, 60 mg/kg): 2.75 h | AUC(0-t) ([2]; liver, 90 mg/kg): 261 µM·h | half-life ([2]; liver, 90 mg/kg): 1.91 h | AUC(0-t) ([2]; lung, 30 mg/kg): 92.4 µM·h | half-life ([2]; lung, 30 mg/kg): 2.39 h | half-life ([2]; lung, 60 mg/kg): 3.04 h | AUC(0-t) ([2]; lung, 90 mg/kg): 623 µM·h | half-life ([2]; lung, 90 mg/kg): 1.72 h | AUC(0-t) ([2]; plasma, 30 mg/kg): 12 µM·h | half-life ([2]; plasma, 30 mg/kg): 2.73 h | AUC(0-t) ([2]; plasma, 60 mg/kg): 24.1 µM·h | half-life ([2]; plasma, 60 mg/kg): 3.42 h | AUC(0-t) ([2]; plasma, 90 mg/kg): 48.2 µM·h | half-life ([2]; plasma, 90 mg/kg): 2.36 h | AUC(0-t) [2, 13]: 2.74 µM·h | half-life [2, 13]: 3.88 h | AUC(0-t) [2, 14]: 9.52 µM·h | half-life [2, 14]: 2.57 h | AUC(0-t) [2, 15]: 18.9 µM·h | half-life [2, 15]: 1.55 h | dose linearity of pharmacokinetics ([2]; all tissues, 30–90 mg/kg dose range, dose-dependent increase in AUC0–16 h and constant CL): linear pharmacokinetics | adverse reactions observed in clinical trials [3]: decreased left ventricular ejection fraction, QT prolongation, hepatotoxicity, diarrhea and interstitial lung disease/pneumonitis | bound to albumin and alpha-1 acid glycoprotein [4]: > 99% | Percent unbound ([4]; plasma, value set in PBPK model): 1% | unbound fraction of drug in the plasma ([4]; value set in PBPK model): 0.01 | CNS antitumor activity [5]: modest CNS antitumor activity | Observed Tmax ([6]; 25 mg multiple dose, healthy, fasted, median (range)): 2.7 (2.5–4.0) ^e h | Observed Tmax ([6]; 100 mg multiple dose, healthy, fasted, median (range)): 3.0 (2.0–6.0) ^e h | Observed Tmax ([6]; 175 mg single dose, healthy, fasted, median (range)): 3.0 (2.0–4.0) ^f h | Observed Tmax ([6]; 1,200 mg multiple dose, cancer, fasted, median (95 % CI)): 3.6 (3.0–7.9) ^f h | Observed Tmax ([6]; 1,200 mg single dose, cancer, fasted, median (95 % CI)): 3.5 (2.1–6.0) ^g h | Observed Tmax ([6]; 1,250 mg multiple dose, cancer, fasted, median (range)): 3.0 (1.5–8.0) ^f h | Observed Tmax ([6]; 1,250 mg multiple dose, cancer, not fasted, median (range)): 3.0 (2.6–8.0) ^f h | Observed Tmax ([6]; 1,500 mg multiple dose, cancer, fasted, median (range)): 3.0 (0.0–12.2) ^f h | Observed Tmax ([6]; 1,500 mg multiple dose, cancer, not fasted, median (range)): 3.4 (0.0–6.0) ^f h | Observed Tmax ([6]; 1,600 mg multiple dose, cancer, fasted, median (95 % CI)): 5.1 (0.9–8.0) ^g h | Observed Tmax ([6]; 1,800 mg multiple dose, cancer, fasted, median (95 % CI)): 3.9 (3.0–7.9) ^g h | Observed Tmax ([6]; 1,800 mg single dose, cancer, fasted, median (95 % CI)): 3.9 (3.0–8.0) ^g h | AUC(0-t) [7]: 2.7 µM·h | half-life [7]: 9.5 h | burden of metastatic breast cancer cells in the brain [8]: reduce the burden of metastatic breast cancer cells in the brains of mice | central nervous system (CNS) penetration [9]: poor central nervous system (CNS) penetration | Partition coefficient Brain:plasma ([10]; human PBPK model parameter): 10 Ratio | Partition coefficient Intestine:plasma ([10]; human PBPK model parameter): 531 Ratio | Partition coefficient Kidney:plasma ([10]; human PBPK model parameter): 1,064 Ratio | Partition coefficient Liver:plasma ([10]; human PBPK model parameter): 12 Ratio | Partition coefficient Lung:plasma ([10]; human PBPK model parameter): 1,643 Ratio | Partition coefficient Slowly perfused:plasma ([10]; human PBPK model parameter): 65 Ratio | Metabolism rate constant Intestine ([10]; human, calculated as 1.3 % of liver metabolism): 0.975 ^f h^−1
